Assay results reported in ChEMBL document CHEMBL5576054, “Lead compound profiling for small molecule inhibitors of the REV1-CT/RIR Translesion synthesis Protein-Protein interaction” (Bioorg Med Chem, 2024).
In brackets after ≈: the same amount, converted by molar mass. Values belong to the compound of their own block, whether it stands above or below them. Activity calls are given as the source filed them. No cut-off for these calls is given here.

Legend:
[1] = Disruption of C-terminal REV-1/FAM-tagged Pol kappa RIR (unknown origin) interaction incubated for 1 hr by FP assay; design: species or system Homo sapiens
[2] = Metabolic stability in human liver microsomes assessed as intrinsic clearance at 1 uM incubated upto 60 mins by LC-MS/MS analysis; assay type: ADME, Microsome; details: 1 h
[3] = Metabolic stability in human liver microsomes assessed as half life at 1 uM incubated upto 60 mins by LC-MS/MS analysis; assay type: ADME, Microsome; details: 1 h
[4] = Solubility of compound in PBS at pH 7.4; assay type: physicochemical
[5] = Solubility of compound in PBS at pH 4; assay type: physicochemical; details: buffer
[6] = Toxicity in BALB/c nude mouse assessed as effect on body weight at 30 to 100 mg/kg, po qd for 7 days; assay type: organism-based; details: in vivo, 168 h, dose 30-100 mg/kg, time 7 day
[7] = system: SW1271; assay: Synergistic inhibition of cell viability in human SW1271 cells with Rev1-/- at 20 uM incubated for 5 days in presence of Olaparib/Temozolomide by Cell Titer Glo assay; assay type: functional, cell-based; details: time 5.0 day
[8] = Half life in CD-1 mouse at 100 mg/kg, ip by LC-MS/MS analysis; assay type: ADME, organism-based; details: in vivo
[9] = Dose normalized AUClast in CD-1 mouse at 100 mg/kg, ip by LC-MS/MS analysis; assay type: ADME, organism-based; details: in vivo
[10] = Half life in CD-1 mouse at 1 mg/kg, iv by LC-MS/MS analysis; assay type: ADME, organism-based; details: CD-1, mouse, in vivo
[11] = AUClast in CD-1 mouse at 100 mg/kg, ip by LC-MS/MS analysis; assay type: ADME, organism-based; details: in vivo
[12] = Clearance in CD-1 mouse at 1 mg/kg, iv by LC-MS/MS analysis; assay type: ADME, organism-based; details: in vivo
[13] = Toxicity in BALB/c nude mouse assessed as visual signs of toxicity at 30 to 100 mg/kg, po qd for 7 days; assay type: organism-based; details: in vivo, 168 h, dose 30-100 mg/kg, time 7 day
[14] = Area under curve extrapolated from the last time point to infinity in CD-1 mouse at 100 mg/kg, ip by LC-MS/MS analysis; assay type: ADME, organism-based; details: in vivo
[15] = Toxicity in BALB/c nude mouse administered orally once daily for 7 days; details: in vivo, route po, time 7 day
[16] = Cmax in CD-1 mouse at 100 mg/kg, ip by LC-MS/MS analysis; assay type: ADME, organism-based; details: in vivo
[17] = MRT (infinity) in CD-1 mouse at 1 mg/kg, iv by LC-MS/MS analysis; assay type: ADME, organism-based; details: CD-1, mouse, in vivo
[18] = system: SW1271; assay: Synergistic inhibition of cell viability in human SW1271 cells at 20 uM incubated for 5 days in presence of Olaparib/Temozolomide by Cell Titer Glo assay; assay type: functional, cell-based; details: time 5.0 day
[19] = Toxicity in BALB/c nude mouse assessed as animal death at 200 mg/kg, po qd measured for 3 days; assay type: organism-based; details: in vivo, 72 h, time 3 day
[20] = system: MEF; assay: Synergistic inhibition of cologenic survival in mouse MEF cells at 10 uM incubated for 24 hrs followed by fresh media replacement without compound measured after 4 days in presence of cisplatin by crystal violet staining based analysis; assay type: functional, cell-based
[21] = system: MEF; assay: Inhibition of cologenic survival in mouse MEF cells at 10 uM incubated for 24 hrs followed by fresh media replacement without compound measured after 4 days by crystal violet staining based analysis; assay type: functional, cell-based
[22] = Dose normalized AUClast in CD-1 mouse at 1 mg/kg, iv by LC-MS/MS analysis; assay type: ADME, organism-based; details: in vivo
[23] = system: A549; assay: Inhibition of cologenic survival in human A549 cells incubated for 8 to 10 days by crystal violet staining based analysis; assay type: functional, cell-based; details: time 8-10 day
[24] = Area under curve extrapolated from the last time point to infinity in CD-1 mouse at 1 mg/kg, iv by LC-MS/MS analysis; assay type: ADME, organism-based; details: in vivo
[25] = AUClast in CD-1 mouse at 1 mg/kg, iv by LC-MS/MS analysis; assay type: ADME, organism-based; details: in vivo
[26] = Tmax in CD-1 mouse at 100 mg/kg, ip by LC-MS/MS analysis; assay type: ADME, organism-based; details: in vivo
[27] = Volume of distribution at steady state in CD-1 mouse at 1 mg/kg, iv by LC-MS/MS analysis; assay type: ADME, organism-based; details: CD-1, mouse, in vivo, read-out: Vdss
[28] = C0 in CD-1 mouse at 1 mg/kg, iv by LC-MS/MS analysis; assay type: ADME, organism-based; details: CD-1, mouse, in vivo, read-out: C0
[29] = biological target: T1, DNA repair protein REV1 (Homo sapiens, UniProt Q9UBZ9); assay: Binding affinity to C-terminal human REV-1 assessed as dissociation constant incubated for 30 mins by MST assay
T1 sequence (Q9UBZ9 whole entry): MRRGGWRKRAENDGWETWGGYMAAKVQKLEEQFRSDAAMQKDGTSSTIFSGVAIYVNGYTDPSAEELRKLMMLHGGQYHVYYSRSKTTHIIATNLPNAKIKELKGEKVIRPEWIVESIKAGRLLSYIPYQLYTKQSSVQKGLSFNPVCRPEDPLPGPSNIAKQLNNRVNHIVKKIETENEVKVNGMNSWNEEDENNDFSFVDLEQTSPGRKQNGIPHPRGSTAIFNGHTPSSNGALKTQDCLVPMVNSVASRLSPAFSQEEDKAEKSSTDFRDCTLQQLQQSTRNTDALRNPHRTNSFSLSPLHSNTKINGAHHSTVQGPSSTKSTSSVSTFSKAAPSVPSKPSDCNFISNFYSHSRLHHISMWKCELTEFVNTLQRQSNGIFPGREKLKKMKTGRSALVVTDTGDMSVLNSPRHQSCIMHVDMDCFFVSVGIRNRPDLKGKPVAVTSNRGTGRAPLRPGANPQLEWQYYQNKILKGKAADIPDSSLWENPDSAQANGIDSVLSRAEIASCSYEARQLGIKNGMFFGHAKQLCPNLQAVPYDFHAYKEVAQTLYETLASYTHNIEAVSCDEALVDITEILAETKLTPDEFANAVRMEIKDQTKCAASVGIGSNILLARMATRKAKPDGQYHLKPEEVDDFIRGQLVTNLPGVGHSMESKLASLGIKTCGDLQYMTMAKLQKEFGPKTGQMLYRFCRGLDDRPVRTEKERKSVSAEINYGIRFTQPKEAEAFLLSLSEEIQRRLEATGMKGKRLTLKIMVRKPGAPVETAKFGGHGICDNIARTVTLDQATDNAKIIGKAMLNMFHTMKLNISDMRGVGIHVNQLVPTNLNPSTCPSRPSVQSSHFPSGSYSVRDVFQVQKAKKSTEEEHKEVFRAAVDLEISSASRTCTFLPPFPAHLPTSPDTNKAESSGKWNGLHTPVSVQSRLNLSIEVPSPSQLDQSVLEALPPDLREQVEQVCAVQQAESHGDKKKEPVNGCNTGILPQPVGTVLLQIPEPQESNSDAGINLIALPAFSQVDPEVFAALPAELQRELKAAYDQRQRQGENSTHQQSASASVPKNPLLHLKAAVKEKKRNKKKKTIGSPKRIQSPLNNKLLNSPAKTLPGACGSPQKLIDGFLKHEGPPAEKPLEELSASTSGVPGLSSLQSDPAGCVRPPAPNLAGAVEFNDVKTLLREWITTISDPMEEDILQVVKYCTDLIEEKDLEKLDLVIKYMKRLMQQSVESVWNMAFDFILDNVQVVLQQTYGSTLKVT

[30] = AUC (infinity) in CD-1 mouse at 100 mg/kg, ip by LC-MS/MS analysis; assay type: ADME, organism-based; details: in vivo
[31] = Toxicity in BALB/c nude mouse assessed as general impairment at 30 to 100 mg/kg, po qd for 7 days; assay type: organism-based; details: in vivo, 168 h, dose 30-100 mg/kg, time 7 day
[32] = Toxicity in BALB/c nude mouse assessed as decrease in animal weight at 200 mg/kg, po qd measured for 2 days; assay type: organism-based; details: in vivo, 48 h, time 2 day
[33] = MRT (infinity) in CD-1 mouse at 100 mg/kg, ip by LC-MS/MS analysis; assay type: ADME, organism-based; details: in vivo
[34] = system: MEF; assay: Synergistic inhibition of cologenic survival in mouse MEF cells with Rev1-/- at 10 uM incubated for 24 hrs followed by fresh media replacement without compound measured after 4 days in presence of cisplatin by crystal violet staining based analysis; assay type: functional, cell-based
[35] = AUC (infinity) in CD-1 mouse at 1 mg/kg, iv by LC-MS/MS analysis; assay type: ADME, organism-based; details: in vivo
[36] = biological target: T2, DNA repair protein REV1 (Homo sapiens) (UniProt Q9UBZ9); assay: Binding affinity to C-terminal human REV-1 incubated for 30 mins by MST assay
T2 sequence (whole entry): T1 sequence (Q9UBZ9 whole entry)

Structure (SMILES): C=CCOc1cc(OCC=C)cc(C(=O)Nc2sc(CCC)cc2C(=O)OCC)c1
IC50 [1]: 49.7 µM

Structure (SMILES): CCCc1cc(C(=O)OCC)c(NC(=O)c2ccc(O)cc2)s1
IC50 [1]: 9.3 µM

Structure (SMILES): CC(=O)N1CCC(C(=O)NCc2cccs2)CC1
IC50 [1]: 16.4 µM

intrinsic clearance (CLint) [2]: 202 µL/min/mg
t1/2 [3]: 3.4 min
solubility [4]: 177 µM (≈ 81.2 µg/mL)
solubility [5]: 45.5 µM (≈ 20.9 µg/mL)
Structure (SMILES): CC(=O)C(C)n1c(CN2CCN(c3cccc(Cl)c3)CC2)nc2c1c(=O)n(C)c(=O)n2C (stereo not given)

Structure (SMILES): Nc1ccc(/N=N/c2cccc(F)c2F)c(N)n1
Activity [6]: Non-Toxic
inhibition [7]: inactive
half-life [8]: 269 min
AUClast/dose [9]: 253 ng·h/mL
intrinsic clearance (CLint) [2]: > 300 µL/min/mg
half-life [10]: 20.3 min
AUC(0-t) [11]: 25300 ng·h/mL
clearance [12]: 177 mL/min/kg
Activity [13]: Non-Toxic
%AUCextra [14]: 0.58%
MTD at 168 h [15]: ≤ 100 mg/kg
t1/2 [3]: < 2.3 min
Cmax [16]: 12500 ng/mL
MRT inf [17]: 15.8 min
inhibition [18]: Active
Activity [19]: Toxic
inhibition [20]: Active
inhibition [21]: inactive
AUClast/dose [22]: 96.7 ng·h/mL
inhibition [23]: Active
solubility [4]: 8.5 µM (≈ 2.12 µg/mL)
%AUCextra [24]: 0.77%
AUC(0-t) [25]: 97 ng·h/mL
IC50 [1]: 0.4 µM
Tmax [26]: 25 min
Vd [27]: 2.81 L/kg
C0 [28]: 412 ng/mL
Kd [29]: 21 µM
AUC(0-inf) [30]: 25500 ng·h/mL
solubility [5]: 4.5 µM (≈ 1.12 µg/mL)
Activity [31]: Non-Toxic
Activity [32]: Toxic
MRT inf [33]: 2.06 h
inhibition [34]: inactive
AUC(0-inf) [35]: 97 ng·h/mL

intrinsic clearance (CLint) [2]: 210 µL/min/mg
t1/2 [3]: 6.6 min
solubility [4]: 14.1 µM (≈ 6.06 µg/mL)
solubility [5]: 13.9 µM (≈ 5.97 µg/mL)
Structure (SMILES): Cc1ccc(C(=O)N2CCN(c3ccccc3)CC2)cc1S(=O)(=O)N1CCOCC1

Structure (SMILES): Cc1cc(C)c2nc(-c3ccncc3)cc(C(=O)NCCCn3ccnc3)c2c1
intrinsic clearance (CLint) [2]: 148 µL/min/mg
t1/2 [3]: 4.7 min
solubility [4]: 146 µM (≈ 56.3 µg/mL)
IC50 [1]: 6.7 µM
Kd [29]: > 200 µM
solubility [5]: 268 µM (≈ 103 µg/mL)

Structure (SMILES): Cc1cccn2c(=O)c3cc(C(=O)N[C@@H](C)c4ccccc4)c(N)[n+](CCOCCO)c3nc12
intrinsic clearance (CLint) [2]: 14.2 µL/min/mg
t1/2 [3]: 97.6 min
solubility [4]: 51.7 µM
IC50 [1]: 1.6 µM
solubility [5]: 302 µM
Activity [36]: inactive

Structure (SMILES): C=CCOc1ccccc1C(=O)Nc1sc(CCC)cc1C(=O)OCC
IC50 [1]: 14.9 µM

Structure (SMILES): CCOC(=O)c1c(NC(=O)C2CCN(C(C)=O)CC2)sc2c1CCCC2
IC50 [1]: 5.8 µM

Structure (SMILES): CCCc1cc(C(=O)OCC)c(NC(=O)C2CCCNC2)s1 (stereo not given)
IC50 [1]: 1.2 µM

intrinsic clearance (CLint) [2]: 58.8 µL/min/mg
t1/2 [3]: 23.6 min
solubility [4]: 0.7 µM (≈ 0.28 µg/mL)
IC50 [1]: 6.2 µM
Kd [29]: > 200 µM
solubility [5]: 1.3 µM (≈ 0.519 µg/mL)
Structure (SMILES): COc1ccc(OC)c(-c2csc(N3CCN(C(=O)c4ccco4)CC3)n2)c1

Structure (SMILES): CCCc1cc(C(=O)OCC)c(NC(=O)C2CCN(C(=O)OC(C)(C)C)CC2)s1
IC50 [1]: 2.3 µM

Structure (SMILES): CCCc1cc(C(=O)OCC)c(NC(=O)c2ccccc2)s1
IC50 [1]: 4.4 µM

Structure (SMILES): Cc1ccc(/N=N/c2ccc(N)nc2N)cc1C
inhibition [23]: Active
